Reference: US7608717B2, “Sulfonyldihydroimidazopyridinone compounds as 5-hydroxytryptamine-6 ligands” (Wyeth, priority 2003, dated 2009)

Molecular target: T1, human cloned 5-HT6 receptors (Homo sapiens, UniProt P50406)
T1 construct: expressed in transfected cells; host or cells: HeLa cells
Assay: 5-HT6 binding affinity ([3H]-LSD displacement, membranes of Hela cells expressing human cloned 5-HT6 receptors)
Conditions: [3H]-LSD 3.0 nM, Hela cell membranes, 120 min at room temperature
Procedure: The affinity of test compounds for the serotonin 5-HT6 receptor is evaluated in the following manner. Cultured Hela cells expressing human cloned 5-HT6 receptors are harvested and centrifuged at low speed (1,000×g) for 10.0 min to remove the culture media. The harvested cells are suspended in half volume of fresh physiological phosphate buffered saline solution and recentrifuged at the same speed. This operation is repeated. The collected cells are then homogenized in ten volumes of 50 mM Tris.HCl (pH 7.4) and 0.5 mM EDTA. The homogenate is centrifuged at 40,000×g for 30.0 min and the precipitate is collected. The obtained pellet is resuspended in 10 volumes of Tris.HCl buffer and recentrifuged at the same speed. The final pellet is suspended in a small volume of Tris.HCl buffer and the tissue protein content is determined in aliquots of 10-25 μl volumes. Bovine Serum Albumin is used as the standard in the protein determination according to the method described in Lowry et al., J. Biol. Chem., 193:265 (1951). The volume of the suspended cell membranes is adjusted to give a tissue protein concentration of 1.0 mg/ml of suspension. The prepared membrane suspension (10 times concentrated) is aliquoted in 1.0 ml volumes and stored at −70° C. until used in subsequent binding experiments.
Binding experiments are performed in a 96 well microtiter plate format, in a total volume of 200 μl. […] The test compounds are added in 20.0 μl volume.
The reaction is allowed to proceed in the dark for 120 min at room temperature, at which time, the bound ligand-receptor complex is filtered off on a 96 well unifilter with a Packard Filtermate® 196 Harvester. The bound complex caught on the filter disk is allowed to air dry and the radioactivity is measured in a Packard TopCount® equipped with six photomultiplier detectors, after the addition of 40.0 μl Microscint®-20 scintillant to each shallow well. The unifilter plate is heat-sealed and counted in a PackardTopCount® with a tritium efficiency of 31.0%.
Binding in the presence of varying concentrations of test compound is expressed as a percentage of specific binding in the absence of test compound. The results are plotted as log % bound versus log concentration of test compound. […] A linear regression line of data points is plotted, from which the IC50 value is determined and the Ki value is determined based upon the following equation: Ki=IC50/(1+L/KD) where L is the concentration of the radioactive ligand used and KD is the dissociation constant of the ligand for the receptor, both expressed in nM.

T1 sequence (P50406 whole entry): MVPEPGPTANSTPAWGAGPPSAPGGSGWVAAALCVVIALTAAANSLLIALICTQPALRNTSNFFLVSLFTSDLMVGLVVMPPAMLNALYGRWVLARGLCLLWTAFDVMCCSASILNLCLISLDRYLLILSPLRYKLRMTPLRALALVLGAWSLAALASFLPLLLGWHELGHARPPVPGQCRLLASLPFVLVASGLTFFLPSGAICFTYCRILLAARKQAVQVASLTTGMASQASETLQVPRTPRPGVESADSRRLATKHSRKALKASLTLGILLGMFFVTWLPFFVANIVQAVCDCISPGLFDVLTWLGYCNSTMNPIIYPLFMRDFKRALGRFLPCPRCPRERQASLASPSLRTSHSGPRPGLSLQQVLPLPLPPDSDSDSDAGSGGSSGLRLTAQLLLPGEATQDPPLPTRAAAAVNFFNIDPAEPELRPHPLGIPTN

SMILES	Ki [nM]
CN(C)CCn1c(=O)n(S(=O)(=O)c2cccc(F)c2)c2cccnc21 [Example 4, 3-(2-dimethylaminoethyl)-1-[(3-fluorophenyl)sulfonyl]-1,3-dihydro-2H-imidazo[4,5-b]pyridin-2-one]	80
CN(C)CCn1c(=O)n(S(=O)(=O)c2cccc(Br)c2)c2cccnc21 [Example 7, 1-[(3-bromophenyl)sulfonyl]-3-[2-(dimethylamino)ethyl]-1,3-dihydro-2H-imidazo[4,5-b]pyridin-2-one]	23
NCCn1c(=O)n(S(=O)(=O)c2ccc(Cl)s2)c2cccnc21 [Example 14, 3-(2-Aminoethyl)-1-[(5-chlorothien-2-yl)sulfonyl]-1,3-dihydro-2H-imidazo[4,5-b]pyridin-2-one]	18
NCCn1c(=O)n(S(=O)(=O)c2ccccc2)c2cccnc21 [Example 15, 3-(2-aminoethyl)-1-(phenylsulfonyl)-1,3-dihydro-2H-imidazo[4,5-b]pyridin-2-one]	44
NCCn1c(=O)n(S(=O)(=O)c2cccc(Cl)c2)c2cccnc21 [Example 16, 3-(2-aminoethyl)-1-[(3-chlorophenyl)sulfonyl]-1,3-dihydro-2H-imidazo[4,5-b]pyridin-2-one]	16
NCCn1c(=O)n(S(=O)(=O)c2c(Cl)nc3sccn23)c2cccnc21 [Example 17, 3-(2-aminoethyl)-1-[(6-chloroimidazo[2,1-b][1,3]thiazol-5-yl)sulfonyl]-1,3-dihydro-2H-imidazo[4,5-b]pyridin-2-one]	4
NCCn1c(=O)n(S(=O)(=O)c2ccc3ccccc3c2)c2cccnc21 [Example 18, 3-(2-aminoethyl)-1-(2-naphthylsulfonyl)-1,3-dihydro-2H-imidazo[4,5-b]pyridin-2-one]	5
COc1cccc(S(=O)(=O)n2c(=O)n(CCN)c3ncccc32)c1 [Example 19, 3-(2-aminoethyl)-1-[(3-methoxyphenyl)sulfonyl]-1,3-dihydro-2H-imidazo[4,5-b]pyridin-2-one]	14
NCCn1c(=O)n(S(=O)(=O)c2ccccc2F)c2cccnc21 [Example 20, 3-(2-aminoethyl)-1-[(2-fluorophenyl)sulfonyl]-1,3-dihydro-2H-imidazo[4,5-b]pyridin-2-one]	77
NCCn1c(=O)n(S(=O)(=O)c2ccccc2Cl)c2cccnc21 [Example 22, 3-(2-aminoethyl)-1-[(2-chlorophenyl)sulfonyl]-1,3-dihydro-2H-imidazo[4,5-b]pyridin-2-one]	55
NCCn1c(=O)n(S(=O)(=O)c2ccc(Cl)cc2)c2cccnc21 [Example 23, 3-(2-aminoethyl)-1-[(4-chlorophenyl)sulfonyl]-1,3-dihydro-2H-imidazo[4,5-b]pyridin-2-one]	17
NCCn1c(=O)n(S(=O)(=O)c2cccc(Cl)c2Cl)c2cccnc21 [Example 24, 3-(2-aminoethyl)-1-[(2,3-dichlorophenyl)sulfonyl]-1,3-dihydro-2H-imidazo[4,5-b]pyridin-2-one]	9
NCCn1c(=O)n(S(=O)(=O)c2cccc(Br)c2)c2cccnc21 [Example 25, 3-(2-aminoethyl)-1-[(3-bromophenyl)sulfonyl]-1,3-dihydro-2H-imidazo[4,5-b]pyridin-2-one]	12
NCCn1c(=O)n(S(=O)(=O)c2ccc(Br)s2)c2cccnc21 [Example 26, 3-(2-aminoethyl)-1-[(5-bromothien-2-yl)sulfonyl]-1,3-dihydro-2H-imidazo[4,5-b]pyridin-2-one]	9
NCCn1c(=O)n(S(=O)(=O)c2cc(Cl)sc2Cl)c2cccnc21 [Example 27, 3-(2-aminoethyl)-1-[(2,5-dichlorothien-3-yl)sulfonyl]-1,3-dihydro-2H-imidazo[4,5-b]pyridin-2-one]	22
